According to patent US6440984B1, “Use of aryl-substituted pyrimidines as insecticidal and acaricidal agents” (BASF Aktiengesellschaft, priority 1998, dated 2002):

Tests used:
[1] = test system: Spodoptera Eridania, 3rd Instar Larvae, Southern Armyworm (SAW); experiment: Southern armyworm (SAW) leaf-dip test, observations at 5 days; format: in vivo; conditions: Southern Army Worm, rating scale; for pest or weed control at 1000 ppm: Spodoptera eridania, foliar, 120 h, read-out: SAW 2^ND-FOLIAR 1000 (ppm)
Procedure: (§1) Test solutions are prepared by dissolving the test compound in a 35% acetone in water mixture to give a concentration of 10,000 ppm. Subsequent dilutions are made with water as needed.
Spodoptera Eridania, 3rd Instar Larvae, Southern Armyworm (SAW)
A Sieva lima bean leaf expanded to 7-8 cm in length is dipped in the test solution with agitation for 3 seconds and allowed to dry in a hood. The leaf is then placed in a 100×10 mm petri dish containing a damp filter paper on the bottom and ten 3rd instar caterpillars. At 5 days, observations are made of mortality, reduced feeding, or any interference with normal molting.

[2] = test system: Tetranychus Urticae (OP-resistant strain), 2-spotted Spider Mite (TSM); experiment: Two-spotted spider mite (TSM) plant-dip test, mortality after 2 days; format: in vivo; conditions: rating scale; for pest or weed control at 300 ppm: Tetranychus urticae, 48 h, read-out: TSM AD-FOLIAR 300 (ppm)
Procedure: as §1
Tetranychus Urticae (OP-resistant strain), 2-spotted Spider Mite (TSM)
Sieva lima bean plants with primary leaves expanded to 7-8 cm are selected and cut back to one plant per pot. A small piece is cut from an infested leaf taken from the main colony and placed on each leaf of the test plants. This is done about 2 hours before treatment to allow the mites to move over to the test plant to lay eggs. The size of the cut, infested leaf is varied to obtain about 100 mites per leaf. At the time of test treatment, the piece of leaf used to transfer the mites is removed and discarded. The newly-infested plants are dipped in the test solution for 3 seconds with agitation and set in the hood to dry. After 2 days, one leaf is removed and mortality counts are made.

[3] = test system: Diabrotica Virgifera Virgifera Leconte, 3rd Instar Western Corn Rootworm (WCR); experiment: Western corn rootworm (WCR) soil test, mortality at 5 days; format: in vivo; conditions: rating scale; for pest or weed control at 50 ppm: Diabrotica virgifera, 120 h, read-out: WCR 2^ND-SOIL 50 (ppm)
Procedure: Diabrotica Virgifera Virgifera Leconte, 3rd Instar Western Corn Rootworm (WCR) One cc of fine talc is placed in a 30 mL wide-mouth screw-top glass jar. One mL of the appropriate acetone test solution is pipetted onto the talc so as to provide 1.25 mg of active ingredient per jar. The jars are set under a gentle air flow until the acetone is evaporated. The dried talc is loosened, 1 cc of millet seed is added to serve as food for the insects and 25 mL of moist soil is added to each jar. The jar is capped and the contents thoroughly mixed mechanically. Following this, ten 3rd instar rootworms are added to each jar and the jars are loosely capped to allow air exchange for the larvae. The treatments are held for 5 days when mortality counts are made. Missing larvae are presumed dead, since they decompose rapidly and can not be found. The concentrations of active ingredient used in this test correspond approximately to 50 kg/ha.

[4] = test system: Aphis Fabae, Mixed Instar, Bean Aphid (BA); experiment: Bean aphid (BA) foliar spray test, mortality after 2 days; format: in vivo; conditions: rating scale; for pest or weed control at 300 ppm: Aphis fabae, 48 h, read-out: BA AD-FOLIAR 300 (ppm)
Procedure: as §1
Aphis Fabae, Mixed Instar, Bean Aphid (BA)
(§2) Pots containing single nasturtium plants (Tropaeolum sp.) about 5 cm tall are infested with about 100-200 aphids one day before the test. Each pot is sprayed with the test solution for 2 revolutions of a 4 rpm turntable in a hood. The spray is directed to give complete coverage of the plants and aphids. The sprayed pots are set on their sides on white trays and held for 2 days, following which mortality estimates are made. Essentially the same method is used with respect to cotton aphid (CA).

Cotton Aphid (CA) = experiment: Cotton aphid (CA) foliar spray test, essentially the bean aphid method; format: in vivo; conditions: rating scale
Procedure: as §1, §2

| Compound | TSM AD-FOLIAR 300 (ppm) [2] | WCR 2^ND-SOIL 50 (ppm) [3] | BA AD-FOLIAR 300 (ppm) [4] | further results |
| --- | --- | --- | --- | --- |
| FC(F)(F)c1cccc(Oc2nccc(-c3ccccc3)n2)c1 [Compound 5] | B (B 45-75% kill) | C (C 76-100% kill) | A (A 0-45% kill) | SAW 2^ND-FOLIAR 1000 (ppm) [1]: A (A 0-45% kill) |
| CCc1ccc(-c2ccnc(Oc3ccc(Cl)c(Cl)c3)n2)cc1 [Compound 12] | C (C 76-100% kill) | C (C 76-100% kill) |  | SAW 2^ND-FOLIAR 1000 (ppm) [1]: C (C 76-100% kill) |
| Fc1ccc(Oc2nccc(-c3cccc(C(F)(F)F)c3)n2)cc1C(F)(F)F [Compound 21] | A (A 0-45% kill) | C (C 76-100% kill) | A (A 0-45% kill) |  |
| Fc1ccc(-c2ccnc(Oc3ccc(F)c(C(F)(F)F)c3)n2)cc1 [Compound 22, 2-(3-Trifluoromethyl-4-fluorophenoxy)-4-(4-fluorophenyl)pyrimidine] |  |  |  | pest or weed control at 1000 ppm [1]: 0 to 45%; pest or weed control at 300 ppm [2]: 0 to 45%; pest or weed control at 50 ppm [3]: 76 to 100%; pest or weed control at 300 ppm [4]: 45 to 75% |
| Fc1ccc(-c2ccnc(Oc3cccc(C(F)(F)F)c3)n2)cc1 [Compound 23] | A (A 0-45% kill) | B (B 45-75% kill) |  |  |
| Fc1ccc(Oc2nccc(-c3cccc(OC(F)(F)F)c3)n2)cc1C(F)(F)F [Compound 37] | A (A 0-45% kill) | B (B 45-75% kill) | A (A 0-45% kill) | SAW 2^ND-FOLIAR 1000 (ppm) [1]: C (C 76-100% kill) |
| FC(F)(F)Oc1cccc(-c2ccnc(Oc3cccc(C(F)(F)F)c3)n2)c1 [Compound 38] | A (A 0-45% kill) | C (C 76-100% kill) | A (A 0-45% kill) |  |
| FC(F)(F)Oc1cccc(-c2ccnc(Oc3ccc(Cl)c(C(F)(F)F)c3)n2)c1 [Compound 39] | A (A 0-45% kill) | B (B 45-75% kill) |  |  |
| FC(F)(F)Oc1cccc(-c2ccnc(Oc3cc(C(F)(F)F)cc(C(F)(F)F)c3)n2)c1 [Compound 42] | C (C 76-100% kill) | B (B 45-75% kill) | B (B 45-75% kill) |  |
| FC(F)(F)Oc1cccc(-c2ccnc(Oc3ccc(Cl)c(Cl)c3)n2)c1 [Compound 43] | C (C 76-100% kill) | C (C 76-100% kill) | C (C 76-100% kill) |  |
| Fc1ccc(Oc2nccc(-c3ccc(OC(F)(F)F)cc3)n2)cc1Cl [Compound 55] | A (A 0-45% kill) | C (C 76-100% kill) | A (A 0-45% kill) | SAW 2^ND-FOLIAR 1000 (ppm) [1]: A (A 0-45% kill) |
| FC(F)(F)c1cc(-c2ccnc(Oc3ccccc3)n2)cc(Cl)c1Cl [Compound 63] | A (A 0-45% kill) |  | A (A 0-45% kill) | CA-FOLIAR 300 (ppm) (Cotton Aphid (CA)): C (C 76-100% kill) |
| Fc1cccc(Oc2nccc(-c3cc(Cl)c(Cl)c(C(F)(F)F)c3)n2)c1 [Compound 64] | A (A 0-45% kill) | C (C 76-100% kill) |  | CA-FOLIAR 300 (ppm) (Cotton Aphid (CA)): A (A 0-45% kill) |
| Fc1ccc(Oc2nccc(-c3cccc(Cl)c3)n2)cc1C(F)(F)F [Compound 66] | A (A 0-45% kill) | C (C 76-100% kill) |  | CA-FOLIAR 300 (ppm) (Cotton Aphid (CA)): A (A 0-45% kill) |
| FC(F)(F)c1cccc(Oc2nccc(-c3cccc(Cl)c3)n2)c1 [Compound 67] | A (A 0-45% kill) |  |  | CA-FOLIAR 300 (ppm) (Cotton Aphid (CA)): C (C 76-100% kill) |
| Fc1cccc(-c2ccnc(Oc3ccc(F)c(C(F)(F)F)c3)n2)c1 [Compound 68] | B (B 45-75% kill) |  |  | CA-FOLIAR 300 (ppm) (Cotton Aphid (CA)): C (C 76-100% kill) |
| Fc1ccc(-c2ccnc(Oc3cccc(C(F)(F)F)c3)n2)cc1C(F)(F)F [Compound 71] | A (A 0-45% kill) |  | C (C 76-100% kill) | CA-FOLIAR 300 (ppm) (Cotton Aphid (CA)): B (B 45-75% kill) |
| Fc1cc(-c2ccnc(Oc3ccc(F)c(C(F)(F)F)c3)n2)ccc1Cl [Compound 78] | B (B 45-75% kill) |  |  | CA-FOLIAR 300 (ppm) (Cotton Aphid (CA)): B (B 45-75% kill) |
| Fc1ccc(Oc2ncc(Cl)c(-c3ccc(Cl)c(Cl)c3)n2)cc1C(F)(F)F [Compound 93, 2-(3-Trifluoromethyl-4-fluorophenoxy)-4-(3,4-dichlorophenyl)-5-chloropyrimidine] |  |  |  | melting point: 90 to 92 °C |
| FC(F)(F)c1ccc(-c2ccnc(Oc3cccc(C(F)(F)F)c3)n2)cc1 [Compound 144] |  |  |  | pest or weed control at 1000 ppm [1]: 0 to 45%; pest or weed control at 50 ppm [3]: 76 to 100%; pest or weed control at 300 ppm [4]: 45 to 75% |
| FC(F)(F)c1ccc(-c2ccnc(Oc3ccc(Cl)c(C(F)(F)F)c3)n2)cc1 [Compound 145] |  |  |  | pest or weed control at 1000 ppm [1]: 0 to 45%; pest or weed control at 50 ppm [3]: 76 to 100%; pest or weed control at 300 ppm [4]: 45 to 75% |
| CCc1cnc(Oc2cccc(C(F)(F)F)c2)nc1-c1cccc(C(F)(F)F)c1 [Compound 157] |  |  |  | pest or weed control at 1000 ppm [1]: 0 to 45%; pest or weed control at 300 ppm [2]: 45 to 75%; pest or weed control at 50 ppm [3]: 76 to 100%; pest or weed control at 300 ppm [4]: 45 to 75% |
| CCCc1cnc(Oc2ccc(F)c(C(F)(F)F)c2)nc1-c1cccc(C(F)(F)F)c1 [Compound 160] |  |  |  | pest or weed control at 1000 ppm [1]: 0 to 45%; pest or weed control at 300 ppm [2]: 0 to 45%; pest or weed control at 50 ppm [3]: 76 to 100% |
| Cc1cnc(Oc2cccc(C(F)(F)F)c2)nc1-c1ccccc1 [Compound 163] |  |  |  | pest or weed control at 300 ppm [2]: 45 to 75%; pest or weed control at 50 ppm [3]: 76 to 100%; pest or weed control at 300 ppm [4]: 0 to 45% |
